These are literature values, as cited in patent US8754096B2, “Piperidinone carboxamide azaindane CGRP receptor antagonists” (Merck Sharp & Dohme Corp., priority 2010, dated 2014).

The series deals with migraine. The settings on record: phase III clinical trials, orally bioavailable.

As for `O=C(N[C@@H]1CC[C@@H](c2cccc(F)c2F)CN(CC(F)(F)F)C1=O)N1CCC(n2c(=O)[nH]c3ncccc32)CC1` [telcagepant], the antimigraine effectiveness entry is reported as “shown antimigraine effectiveness”.
